Structures are written as SMILES. In brackets after ≈: the same amount, converted by molar mass.

The conditions of data set [1]: cited from earlier work.
For data set [2] the following is noted: cited from earlier work. This is another data set of the same source.
Data set [3] is described as follows: Neutralization of an aqueous solution of SAM-e tosylate with buffering agents to pH 7. The data set is classed as physicochemical. The conditions noted are these: for Final pH: SAMe tosylate 400 mg/100 mL after addition of the neutralizing agent; for Initial pH / Stabilization time: SAMe tosylate 400 mg/100 mL; for Initial pH: before addition of the neutralizing agent; for Neutralizing agents added amount: added to SAMe tosylate 400 mg/100 mL until neutralization. On the procedure: (§1) After measuring the pH, the solution was gradually added with buffering substance until neutralization and a pH 7 value were reached. As it can be seen from the table below (Table 9), the amount of Lysine and Potassium Citrate tribasic appear to be excessive to consider their use in commercial pharmaceutical forms. More precisely, from the table it can be noted that 15.4 g of Lysine fail to bring the SAMe solution to neutralization (the pH value remains 4).
SAMe tosilate concentration: 400 mg/100 mL

A short description of data set [4]: Neutralization of aqueous solutions of other acid active ingredients with L-Arginine. It is filed as physicochemical. The conditions noted are these: aqueous solution containing 1 g of the active ingredient.
Text: as §1
Based on the excellent neutralization results obtained with L-Arginine, the same method was used to analyze the amount of L-Arginine necessary to neutralize a solution including other acid active ingredients (results below): • An aqueous solution containing 1 g of N-Acetyl-Cysteine is neutralized with 1.086 g of L-Arginine • An aqueous solution containing 1 g of L-Acetyl-Carnitine is neutralized with 0.736 g of L-Arginine

Broadly, the pKa is the pH at which an ionisable group is half protonated. On to `O=C(O)CCCC[C@@H]1CCSS1` (racemic) [Lipoic acid], for which the pKa in data set [1] is 4.52.
Take `CC(=O)Oc1ccccc1C(=O)O` [Acetylsalicylic acid]: the Solubility in water in data set [2] is 1460 µg/mL (≈ 8.1 mM).
Consider `N=C(N)NCCC[C@H](N)C(=O)O` [Arginine], for which, in data set [3], the “Final pH” value stood at 7.0, the “Initial pH” value is 2.08 and the “Neutralizing agents added amount” value was determined as 375 mg.
`O=C1O[C@H]([C@@H](O)CO)C(O)=C1O` [Ascorbic Acid]: in data set [1], the pKa was 4.36.
Regarding `N[C@@H](CC(=O)O)C(=O)O` [Aspartic Acid], the pKa in data set [1] is recorded as 1.7.
For the compound `N[C@@H](CCC(=O)O)C(=O)O` [Glutamic acid], the pKa in data set [1] is recorded as 1.88.
Regarding `CC(C)(O)CC(=O)O` [Hydroxy-methyl-butyrate, 3-hydroxy-3-methylbutyric acid], in data set [1], the pKa is given as 4.4. The Solubility in water in data set [2] was 15000 µg/mL (≈ 127 mM).
For `CC(=O)O[C@H](CC(=O)[O-])C[N+](C)(C)C` [L-Acetyl Carnitine], the “Amount of L-Arginine needed to neutralize” value in data set [4] was found to be 0.736 g. The pKa in data set [1] is given as 4.09. Besides, the Solubility in water in data set [2] is 142000 µg/mL (≈ 699 mM).
Regarding `C[N+](C)(C)C[C@H](O)CC(=O)[O-]` [Levocarnitine], in data set [1], the pKa is recorded as 4.2. Besides, the Solubility in water in data set [2] was 5330 µg/mL (≈ 33.1 mM).
In the case of `[O]=[Mg]` [Light magnesium oxide], in data set [3], the “Final pH” value is 7.1, the “Initial pH” value is recorded as 2.08 and the “Neutralizing agents added amount” value was found to be 44.91 mg.
Take `NCCCC[C@H](N)C(=O)O` [Lysine]: in data set [3] (SAMe solution, neutralization not reached), the “Amount of neutralizing agent added” value came out at 15.4 g. Also, in data set [3], the “Final pH” value is reported as 4, the “Initial pH” value was 2.08 and the “Neutralizing agents added amount” value was 15402 mg.
Turning to `CC(=O)N[C@@H](CS)C(=O)O` [N-Acetyl Cysteine], the “Amount of L-Arginine needed to neutralize” value in data set [4] is given as 1.086 g. Further, in data set [2], the Solubility in water is 5090 µg/mL (≈ 31.2 mM).
Consider `O=C([O-])CC(O)(CC(=O)[O-])C(=O)[O-].[K+].[K+].[K+]` [Potassium citrate tribasic], for which, in data set [3], the Stabilization time is less than 3 min, the “Final pH” value worked out at 7.0, the “Initial pH” value worked out at 2.10 and the “Neutralizing agents added amount” value came out at 14943 mg.
`CC(=O)SC[C@H](NC(=O)CC[C@H](N)C(=O)O)C(=O)NCC(=O)O` [S-acetyl-L-glutatione]: the pKa in data set [1] was 1.75.
Consider `C[S+](CC[C@H](N)C(=O)[O-])C[C@H]1O[C@@H](n2cnc3c(N)ncnc32)[C@H](O)[C@@H]1O` (stereo partly drawn) [SAMe, S-Adenosyl-l-methionine], for which the pKa in data set [1] is given as 1.7. Also, the Solubility in water in data set [2] is 1190 µg/mL (≈ 2.99 mM).
For `O=C([O-])O.[Na+]` [Sodium bicarbonate], in data set [3], the Stabilization time is less than 3 min, the “Final pH” value was 7.0, the “Initial pH” value is 2.08 and the “Neutralizing agents added amount” value is recorded as 690 mg.
On the same counts, the results for `O=C([O-])[O-].[Na+].[Na+]` [Sodium carbonate] are less than 3 min, 7.0, 2.10 and 200 mg.
For `O=P([O-])([O-])[O-].[Na+].[Na+].[Na+]` [Sodium phosphate tribasic], in that order: less than 3 min, 7.0, 2.09 and 510 mg.

The record behind these values is patent US20220273690A1, “Edible Formulations Based on Active Ingredients and Arginine” (GRAAL S.R.L., priority 2019, published 2022).
